In brackets after ≈: the same amount, converted by molar mass.
What was measured:
[1] = Aging / storage stability: relative decomposition of the sulfonylurea by HPLC; format: physicochemical; settings: 10080 min
Protocol: Into 7.8 g of epoxidized soybean oil (ESBO) was added with stirring: 1.18 g methyl 3-[[[[(4-methoxy-6-methyl-1,3,5-triazin-2-yl)amino]carbonyl]amino]sulfonyl]-2-thiophenecarboxylate tech (98.1%), 1.31 g of anhydrous diisobutylphenoxy ethoxyethyl dimethylbenzyl ammonium chloride in H2 O (Hyamine 1622™), 0.11 g Ca(OH)2, and 0.03 g calcium acetate.
In a vial was vortexed the following: 0.214 g methyl 2-[[[[[(4,6-dimethoxy-2-pyrimidinyl)amino]carbonyl]amino]sulfonyl]methyl]benzoate (98.3%),0.192 g of a 25% aqueous solution of tetramethyl ammonium hydroxide, and 4.32 g of water to produce the sulfonylurea quaternary salt.

[2] = Solubility in epoxidized soybean oil, methyl caprylate/caprate, and cottonseed oil
[3] = tested on: Aspergillus niger; settings: 6 days, Czapek solution agar
Source text: A. niger ATCC #16404 was contacted with each sulfonylurea salt for 6 days in a Czapek solution agar.

[4] = tested on: Setaria faberi (Giant Foxtail); experiment: Herbicidal efficacy against giant foxtail (green fresh weight, percent control); format: in vivo
Protocol: (§1) Aqueous solutions of the benzethonium salts of each sulfonylurea were prepared with and without 0.25% by weight of the nonionic surfactant polyoxyethylene (20) monolaurate (Tween 20®, trademark of ICI), based upon 100% total weight of aqueous solution. The aqueous solutions were sprayed onto giant foxtail (Setaria faberi) and large crabgrass (Digitaria sanguinalis) with a spray volume of 187 L/ha (liters/hectare). The active amount of each salt applied in grams/hectare (g/ha) is shown in Table 2 with respect to giant foxtail and Table 3 with respect to large crabgrass. The plants were evaluated two weeks after treatment with the aqueous solution by obtaining their green fresh weights and comparing these weights to an untreated control treatment to compute percent control values. Six replications were made of each treatment. All data were analyzed using a Fisher's Least Significant Difference (L.S.D.) Test at the 0.05 level.
(§2) Aqueous solutions were prepared with 75% concentrated, water-dispersible granules (75 DF) of nicosulfuron and rimsulfuron available as Accent® herbicide and Titus® herbicide (trademarks of DuPont) with or without 0.25% by weight of Tween 20®. These aqueous solutions were tested against giant foxtail (Setaria faberi) and large crabgrass (Digitaria sanguinalis) as described in Example 4.

[5] = tested on: Digitaria sanguinalis (Large Crabgrass); experiment: Herbicidal efficacy against large crabgrass (green fresh weight, percent control); format: in vivo
Protocol: as §1, §2

[6] = physchem; settings: water, pH 7, water
[7] = Hydrolytic stability in aqueous solution by HPLC (storage at room temperature for 36 days); format: physicochemical; settings: 100 ppm in deionized water, after 36 days, read-out: percentage of material present after storage
Protocol: Aqueous solutions containing 100 ppm of nicosulfuron or its benzethonium salt were prepared with deionized water and stored at room temperature for 36 days. The solutions were analyzed by HPLC with an Inersil ODS2 column and an ultraviolet detector at a wavelength of 254 nm. The mobile phase through the column consisted of acetonitrile and water at a 1:1 volume ratio. The flow rate through the column was 1 ml/min.

[8] = Aging in deionized water: relative degradation of the sulfonylurea by HPLC; format: physicochemical; settings: saturated in deionized water (500 ppm), 25° C. for 30 days
Protocol: Deionized water (5 g) was saturated with 2-[[[[(4,6-dimethoxy-2-pyrimidinyl)amino]carbonyl]amino]sulfonyl]-N,N-dimethyl-3-pyridinecarboxamide tech (500 ppm) and aged at 25° C. for 30 days.

CCCCCCCCCCCC[N+](CCCCCCCCCCCC)(CCCCCCCCCCCC)CCCCCCCCCCCC.COc1cc(OC)nc(NC(=O)[N-]S(=O)(=O)c2c(-c3nnn(C)n3)cnn2C)n1 [B]
relative degradation ([1]; 50% solutions in epoxidized soybean oil, methyl caprylate/caprate, and cottonseed oil, 1 week at 54° C.): 20-45%
solubility in organic solvents [2]: more than 50%

CC(C)(C)CC(C)(C)c1ccc(OCCOCC[N+](C)(C)Cc2ccccc2)cc1.COC(=O)c1ccccc1S(=O)(=O)[N-]C(=O)Nc1nc(C)nc(OC)n1 [Benzethonium salt of metsulfuron-methyl]
Minimum Effective Concentration [3]: 300-1000 ppm

CC(C)(C)CC(C)(C)c1ccc(OCCOCC[N+](C)(C)Cc2ccccc2)cc1.COc1cc(OC)nc(NC(=O)[N-]S(=O)(=O)c2ncccc2C(=O)N(C)C)n1 [Benzethonium salt of nicosulfuron]
% Control ([4]; 6 g/ha, 0.25% Tween 20, two weeks after treatment): 97%
% Control ([4]; 6 g/ha, no nonionic surfactant, two weeks after treatment): 39%
Minimum Effective Concentration [3]: 100-300 ppm
% Control ([5]; 20 g/ha, 0.25% Tween 20, two weeks after treatment): 94%
% Control ([5]; 20 g/ha, no nonionic surfactant, two weeks after treatment): 34%

CC(C)(C)CC(C)(C)c1ccc(OCCOCC[N+](C)(C)Cc2ccccc2)cc1.CCS(=O)(=O)c1cccnc1S(=O)(=O)[N-]C(=O)Nc1nc(OC)cc(OC)n1 [Benzethonium salt of rimsulfuron]
% Control ([4]; 3 g/ha, 0.25% Tween 20, two weeks after treatment): 95%
% Control ([4]; 3 g/ha, no nonionic surfactant, two weeks after treatment): 25%
Minimum Effective Concentration [3]: 100-300 ppm
% Control ([5]; 10 g/ha, 0.25% Tween 20, two weeks after treatment): 94%
% Control ([5]; 10 g/ha, no nonionic surfactant, two weeks after treatment): 58%

COC(=O)c1ccccc1CS(=O)(=O)[N-]C(=O)Nc1nc(OC)cc(OC)n1.C[N+](C)(C)C [C]
degradation of the sulfonylurea ([1]; aqueous solution, one week at 54° C.): 52%

COc1cc(OC)nc(NC(=O)NS(=O)(=O)c2ncccc2C(=O)N(C)C)n1 [nicosulfuron, 2-[[[[(4,6-dimethoxy-2-pyrimidinyl)amino]carbonyl]amino]suflonyl]-N,N-dimethyl-3-pyridinecarboxamide]
solubility [6]: 12 mg/mL (≈ 29.2 mM)
remaining at 864 h [7]: 7%
degraded at 720 h [8]: 90%
